# Literature values, collected in patent US9884022B2, “Controlled release pharmaceutical compositions of tapentadol” (LUPIN LIMITED, priority 2010, dated 2018).
# Conditions: background statement on immediate release compositions
smiles,measurement,value
"CCC(c1cccc(O)c1)C(C)CN(C)C (stereo not shown) [tapentadol, 3-(3-dimethylamino-1-ethyl-2-methyl-propyl) phenol]",half life,4 h
